From patent US20100143405A1, “Immunotherapy of virus infection” (priority 2004, published 2010)

How the values were obtained:
[1] = system: CTL epitope-specific CD8^+ T cells; design: species or system BALB/c mice; details: mouse, in vivo
PBMC = PBMC proliferation induced by Th epitope P25; format: cell-based, human
Excerpt: Preferably, the Th cell epitope is P25, KLIPNASLIENCTKAEL (SEQ ID No:8), from the F protein of morbillivirus (Ghosh et al, 2001). This epitope is promiscuous in all outbred dogs that have been studied by the inventors so far and also in all strains of mice and cattle examined (unpublished results). This epitope is also able to induce PBMC proliferation in at least 50% of blood samples extracted from human volunteers. The F protein is conserved across most morbilliviruses and in the case of P25 is conserved in canine distemper virus, rhinderpest and measles viruses.

Substance: GALNNRFQIKGVELKS-K(Pam2CSS)-TYQRTRALV [lipopeptide]
- antigen-specific CD8+ T cell responses compared with non-lipidated peptide [1]: not enhanced
- antigen-specific CD8+ T cells in lung and spleen compared with non-lipidated peptide [1]: more antigen-specific CD8^+ T cells

Substance: KLIPNASLIENCTKAEL (Morbillivirus) [P25]
- blood samples from human volunteers in which PBMC proliferation is induced (PBMC): at least 50%
